Patent US20110251160A1 (priority 2008, published 2011)
Where two headings read alike, the source gives them in different places. Marks after values point to notes of the source that are not given here.

Assays:
[1] = Physical properties of dabigatran etexilate; assay type: physicochemical
[2] = tested on: patients with chronic atrial fibrillation; experiment: PETRO study, phase 2 12-week dose finding study; assay type: in vivo, human
From the text: Primary endpoints were bleeding events and changes in D-dimer. […] Minor bleeding was dose related.

[3] = tested on: patients with atrial fibrillation
Experimental: PETRO-Ex began while the PETRO study was ongoing and investigators were initially kept blinded to patient treatment group until PETRO was completed. Unblinding investigators to patient treatment was possible thereafter.
Data were summarized descriptively; no hypothesis was to be tested. Events were analyzed on the basis of the treatment at onset. Incidences were reported as number of patients with events as well as normalized to 100 patient years on the respective treatment.
Patients who completed PETRO on 50 mg b.i.d. were switched to 150 mg q.d. upon entry in the PETRO-Ex study (N=93 patients). […] Patients who were down titrated to 50 mg q.d. based on a glomerular filtration rate ≦50 mL/min during PETRO were excluded from the long-term trial; patients down-titrated in other dose levels remained on the q.d. treatment at that dose.
The former is represented by the number of thromboembolic events per 100 years, the latter by the number of bleeding events per 100 years.

[4] = tested on: cytochrome P-450 drug metabolizing enzymes; experiment: Cytochrome P-450 interaction; assay type: in vitro ADME
[5] = Clinical pharmacokinetics and pharmacodynamics of dabigatran etexilate; conditions: in vivo
[6] = 300 mg b.i.d., listed as dabigatran etexilate
[7] = PETRO-Ex, Dabigatran etexilate All doses
[8] = PETRO-Ex, including bleeding and thrombotic events

## CCCCCCOC(=O)NC(=N)c1ccc(NCc2nc3cc(C(=O)N(CCC(=O)OCC)c4ccccn4)ccc3n2C)cc1 [Dabigatran etexilate, 1-methyl-2-[N-[4-(N-n-hexyloxycarbonylamidino)phenyl]aminomethyl]benzimidazol-5-ylcarboxylic acid-N-(2-pyridyl)-N-(2-ethoxycarbonylethyl)amides]
[1]
  Hygroscopicity: hygroscopic
  Solubility in water: sparingly soluble in water
[2]; 50 mg b.i.d. group
  Systemic thromboembolic events, number: 2
[2]; 300 mg b.i.d. plus ASA groups
  Major bleeding events: 6%
  Major bleeding events, number: Four
[2]; 50, 150 and 300 mg b.i.d.
  Minor bleeding: dose related
[2]; dabigatran etexilate-treated patients, all doses
  Elevated transaminases >3×upper limit of normal (ULN): 0.9%
[2]; of 432 dabigatran etexilate-treated patients
  Elevated transaminases >3×upper limit of normal (ULN), number of patients: 4
[3]; 50 mg b.i.d.
  Adverse Events leading to premature discontinuation (rate): 21.3 per 100 patient years
  Other MACE (rate): 8.5 per 100 patient years
  Stroke and Systemic Thromboembolism (rate): 12.8 per 100 patient years
[3]; 50 mg b.i.d., listed as dabigatran etexilate
  Stroke and Systemic Thromboembolism (rate): more than 12 per 100 patient years
[3]; 150 mg b.i.d.
  ALT or AST >2xULN (rate): 3.1 per 100 patient years
  ALT or AST >3xULN (rate): 1.9 per 100 patient years
  ALT or AST >3xULN and Bili >2xULN within 30 days (rate): 0.4 per 100 patient years
  ALT or AST >5xULN (rate): 1.0 per 100 patient years
  Adverse Events leading to premature discontinuation (rate): 9.8 per 100 patient years
  Fatal major bleeds, number: 4
  MI (rate): 0.9 per 100 patient years
  Major Bleeds (rate): 4.2 per 100 patient years
  Major Bleeds, of these with aspirin (rate): 8.7 per 100 patient years
  Major Bleeds, of these without aspirin (rate): 3.2 per 100 patient years
  Major bleeding events: 4.2 % per year
  Other MACE (rate): 1.0 per 100 patient years
  Stroke and Systemic Thromboembolism (rate): 1.0 per 100 patient years
  TIA (rate): 0.1 per 100 patient years
  Thromboembolic events and stroke rate: 1 % per year
[3]; 150 mg q.d.
  ALT or AST >2xULN (rate): 3.4 per 100 patient years
  Adverse Events leading to premature discontinuation (rate): 13.7 per 100 patient years
  Major Bleeds (rate): 5.1 per 100 patient years
  Major Bleeds, of these without aspirin (rate): 6.5 per 100 patient years
  Stroke and Systemic Thromboembolism (rate): 5.1 per 100 patient years
[3]; 150 mg q.d., listed as dabigatran etexilate
  Stroke and Systemic Thromboembolism (rate): about 5 per 100 patient years
[3]; 300 mg b.i.d.
  ALT or AST >2xULN (rate): 4.9 per 100 patient years
  ALT or AST >3xULN (rate): 2.4 per 100 patient years
  ALT or AST >5xULN (rate): 1.2 per 100 patient years
  Adverse Events leading to premature discontinuation (rate): 25.6 per 100 patient years
  Major Bleeds (rate): 12.2 per 100 patient years
  Major Bleeds, of these with aspirin (rate): 32.7 per 100 patient years
  Major Bleeds, of these without aspirin (rate): 6.3 per 100 patient years
  Major bleeding events: 12.2 % per year
  Other MACE (rate): 1.2 per 100 patient years
  Stroke and Systemic Thromboembolism (rate): 1.2 per 100 patient years
  Thromboembolic events and stroke rate: 1.2 % per year
[3]; [6]
  Major Bleeds (rate): more than 12 per 100 patient years
  Stroke and Systemic Thromboembolism (rate): about 1 per 100 patient years
[3]; 300 mg q.d.
  ALT or AST >2xULN (rate): 1.5 per 100 patient years
  ALT or AST >3xULN (rate): 1.5 per 100 patient years
  ALT or AST >3xULN and Bili >2xULN within 30 days (rate): 0.5 per 100 patient years
  ALT or AST >5xULN (rate): 1.5 per 100 patient years
  Adverse Events leading to premature discontinuation (rate): 9.6 per 100 patient years
  Fatal major bleeds, number: 1
  MI (rate): 0.5 per 100 patient years
  Major Bleeds (rate): 2.5 per 100 patient years
  Major Bleeds, of these with aspirin (rate): 3.6 per 100 patient years
  Major Bleeds, of these without aspirin (rate): 2.1 per 100 patient years
  Major bleeding events: 2.5 % per year
  Other MACE (rate): 0.5 per 100 patient years
  Stroke and Systemic Thromboembolism (rate): 2.5 per 100 patient years
[3]; 300 mg q.d., listed as dabigatran etexilate
  Stroke and Systemic Thromboembolism (rate): more than 2 per 100 patient years
[3]; 300 mg twice daily
  Tolerability: not tolerable
[3]; PETRO-Ex
  Serious adverse events: cardiac disorders: 22%
  Serious adverse events: cardiac disorders, pts: 80
  Serious adverse events: gastrointestinal disorders: 7.8%
  Serious adverse events: gastrointestinal disorders, pts: 28
  Serious adverse events: infections: 9.4%
  Serious adverse events: infections, pts: 34
  Serious adverse events: nervous system disorders: 9.1%
  Serious adverse events: nervous system disorders, pts: 33
[3]; PETRO-Ex, Dabigatran etexilate 150 mg b.i.d.
  Stroke and systemic embolism (per 100 patient years): 1.0%
[3]; PETRO-Ex, Dabigatran etexilate 150 mg b.i.d., without concomitant aspirin
  Major bleeding events (per 100 patient years): 3.2%*
[3]; [7]
  LFT abnormalities >3 xULN (per 100 patient years): 1.7%
  Myocardial Infarction: 0.7%
[3]; [8]
  Serious adverse events: 51%
  Serious adverse events, patients: 184
[3]; Total
  ALT or AST >2xULN (rate): 2.9 per 100 patient years
  ALT or AST >3xULN (rate): 1.7 per 100 patient years
  ALT or AST >3xULN and Bili >2xULN within 30 days (rate): 0.4 per 100 patient years
  ALT or AST >5xULN (rate): 1.1 per 100 patient years
  Adverse Events leading to premature discontinuation (rate): 11.5 per 100 patient years
  MI (rate): 0.7 per 100 patient years
  Major Bleeds (rate): 4.2 per 100 patient years
  Major Bleeds, of these with aspirin (rate): 8.5 per 100 patient years
  Major Bleeds, of these without aspirin (rate): 3.2 per 100 patient years
  Other MACE (rate): 1.1 per 100 patient years
  Stroke and Systemic Thromboembolism (rate): 1.9 per 100 patient years
  TIA (rate): 0.1 per 100 patient years
[3]; all doses
  Concomitant bilirubin elevation >2×ULN within 30 days of transaminase elevations >3×ULN: 0.4 % per year
  Elevated liver transaminases, AST or ALT >3×ULN: 1.7 % per year
  Fatal intracranial bleeds, number: Three
  Fatal major bleeds, number: Five
  Transaminases (AST or ALT) >5×ULN: 1.1 % per year
[3]; doses ≦150 mg/day (150 mg q.d. combined with 50 mg b.i.d.)
  Major bleed rate: 3.7 % per year
[3]; on concomitant aspirin
  Bleeding event rate: 8.5 % per year
[3]; the two highest doses
  Stroke or systemic thromboembolic event rates: approximately 1 % per year
[3]; without concomitant aspirin
  Bleeding event rate: 3.2 % per year
[3]; ≦150 mg/day
  Annualized thromboembolic event rate: over 5.0 per 100 patient years
[4]
  Metabolism by, induction or inhibition of cytochrome P-450: not metabolized by and does not induce or inhibit cytochrome P-450 drug metabolizing enzymes
[5]
  Food interactions: no food interactions
